# Measured values as given in US20010055590A1, “Method for enhancing myoblast migration and invasion in the context of gene therapy” (priority 1999, published 2001).
# B1: recombinant human platelet-derived growth factor-BB (protein, UniProt P01127 82-190, looked up)
# Platelet-derived growth …: SLGSLTIAEPAMIAECKTRTEVFEISRRLIDRTNANFLVWPPCVEVQRCSGCCNNRNVQCRPTQVQLRPVQVRKIEIVRKKPIFKKATVTLEDHLACKCETVAAARPVT
# modifications: Platelet-derived growth factor subunit B
# notes: recombinant human platelet-derived growth factor-BB
# Experiments:
# Assay type in all cases: cell-based
# MMP-2 = assay: Gelatin zymography of mouse myoblast culture medium, MMP-2; settings: mouse myoblasts treated 24 hours; densitometry normalized to DMEM control
# Protocol: Briefly, myoblasts were grown in 6 cm tissue culture plates to approximately 70% confluence, then rinsed three times with serumfree DMEM and incubated for 3 hours in DMEM containing 0.2% BSA to eliminate the effects of serum. Growth factors were added and cells were incubated for 24 hours. Culture medium was then collected, centrifuged to pellet detached cells, and concentrated ten-to twenty-fold using the Centricon-10 (Amicon, Beverly, Mass.) system. The protein concentration of the supernatants was determined using the Bio-Rad protein microassay system with BSA used as the standard. Samples were stored at −70° C. until use. For gelatin zymography, aliquots (10 μg as the total protein per sample) were electrophoresed at constant voltage on a 10% polyacrylamide gel containing 2 mg/ml gelatin. The gel was rinsed three times for 15 min in 2.5% Triton-X 100 to remove SDS and renature the proteins, then incubated in MMP activation buffer (0.05 M Tris-HCl, pH 7.5 with 5 mM CaCl2) for 24 hours at 37° C. with constant shaking. Gels were stained overnight in 0.5% Coomassie blue R-250, and destained for 1 hour in 40% methanol: 10% acetic acid. Proteinase activity was quantified by densitometric scanning of bands using a Bio-Rad Gel Doc 1000 video camera imaging system (Bio Rad, Hercules, Calif.). […] Values are arbitrary densitometric units, which are normalized to DMEM control for each experiment and shown as values ±SEM representing a minimum of 3 experiments per condition. […] Mouse myoblasts were treated for 24 hours with either DMEM alone, fibronectin (50 μg/ml), or individual fragments (37.5 μg/ml) of 45, 120, 63 (Retronectin), 75 kDa and their combinations, 45 kDa/120 kDa and 120 kDa/63 kDa.
# mouse myoblasts = assay: In vitro mouse myoblast migration assay (gelatin-coated membrane); settings: 12 hours; for stimulation of mouse myoblast migration over the DMEM control: 25 ng/ml bFGF, 50 μg/ml fibronectin, 10 ng/ml HGF, 2 ng/ml TGF-β1; for effect on mouse myoblast migration: stimulant in bottom chamber
# Protocol: Mouse myoblasts were previously isolated from hind limb muscles of 4-6 week old severe combined immunodeficient (SCID) mice and clonally purified from contaminating fibroblasts (Yao et al. “Primary myoblast-mediated gene: transfer: persistent expression of human factor IX in mice” Gene Therapy 1:99-107, 1994). Myoblasts (approximately 1×10^6 cells) were plated on 6 cm tissue culture plates coated with 0.5% gelatin (Sigma, St. Louis, Mo.) and grown in growth medium consisting of Dulbecco's Modified Eagle Medium (DMEM) (Gibco BRL, Gaithersburg Md.) supplemented with 20% fetal bovine serum (FBS; Gibco) and 0.5% chick embryo extract (CEE; Gibco). All animal studies were carried out following the institutional guidelines for ethical animal use. Human myoblasts were isolated using trypsin digestion from abdominal wall or chest wall muscle biopsies, and surgery. Written consent was obtained from all patients prior to biopsy isolation as approved by the University Hospital's Institutional Regulation Board on the use of human subjects. Cells were preplated on uncoated plates for 1 hour to separate muscle fibroblasts. […] All experiments were done with myoblasts of passage 7 or lower. Myoblast migration and invasion were examined using a commercially available in vitro cell migration and invasion assay kit (Biocoat, Becton Dickinson, Franklin Lakes, N.J.) as described by Albini et al. (A rapid in vitro assay for quantitating the invasive potential of tumor cells Cancer Res 47:3239-3245, 1987). Myoblasts were grown to approximately 70% confluence, rinsed three times in serum-free DMEM, followed by incubation for 3 hours in 0.2% bovine serum albumin (BSA) in DMEM to eliminate the effects of serum. Cells were then trypsinized and collected by centrifugation. Cells were resuspended in serum-free DMEM at a density of 1×10^5 cells/ml, and 0.5 ml aliquots of cell suspension were added to the top chamber. […] Fibronectin subfragments of 45 KDa (Sigma), 120 kDa (Gibco), 63 kDa (Retronectin, Takara) and 70 KDa (Sigma) were used alone or in combination. […] For migration studies, the upper chamber membrane was coated with 0.1% gelatin and cells were allowed to migrate for 8-12 hours, while for invasion studies, the upper membrane was coated with 5 μl of Matrigel® diluted to 5 mg/ml in sterile phosphate buffered saline (PBS) and cells were allowed to invade for 24 hours. The top side of the insert membrane was scrubbed free of cells using a cotton swab and the bottom side was stained using the Leukostat-I system (Fisher Diagnostics, Pittsburgh, Pa.). The number of cells per field was counted in 10 randomly selected fields and averaged for each condition. To evaluate the effects of inactivation or activation of MMPs, aliquots (0.05 units in 50 μl PBS) of purified human plasmin (Sigma) or 50 mM N-acetyl cysteine (NAC; Sigma) were added with the cells to the top chamber of the migration assay and growth factor was added to the bottom. […] Myoblasts (5×10^4 cells/well) were stimulated with various growth factors and fibronectin, and their ability to migrate or invade through a Matrigel® barrier (panel a, mouse myoblast migration at 12 hours; panel b, mouse myoblast invasion at 24 hours). […] Bars represent mean ±SEM from a minimum of 3 separate experiments. […] Further studies were done to elucidate the role of MMPs in cytokine-mediated mouse myoblast migration.
# human myoblasts = assay: In vitro human myoblast migration assay; settings: 12 hour time point
# Protocol: Mouse myoblasts were previously isolated from hind limb muscles of 4-6 week old severe combined immunodeficient (SCID) mice and clonally purified from contaminating fibroblasts (Yao et al. “Primary myoblast-mediated gene: transfer: persistent expression of human factor IX in mice” Gene Therapy 1:99-107, 1994). Myoblasts (approximately 1×10^6 cells) were plated on 6 cm tissue culture plates coated with 0.5% gelatin (Sigma, St. Louis, Mo.) and grown in growth medium consisting of Dulbecco's Modified Eagle Medium (DMEM) (Gibco BRL, Gaithersburg Md.) supplemented with 20% fetal bovine serum (FBS; Gibco) and 0.5% chick embryo extract (CEE; Gibco). All animal studies were carried out following the institutional guidelines for ethical animal use. Human myoblasts were isolated using trypsin digestion from abdominal wall or chest wall muscle biopsies, and surgery. Written consent was obtained from all patients prior to biopsy isolation as approved by the University Hospital's Institutional Regulation Board on the use of human subjects. Cells were preplated on uncoated plates for 1 hour to separate muscle fibroblasts. Approximately 95% of the cells were desmin-positive following immunohistochemical staining of representative culture samples, and were capable of differentiation into myotubes, indicating high purity of the myoblast preparation. All experiments were done with myoblasts of passage 7 or lower. Myoblast migration and invasion were examined using a commercially available in vitro cell migration and invasion assay kit (Biocoat, Becton Dickinson, Franklin Lakes, N.J.) as described by Albini et al. (A rapid in vitro assay for quantitating the invasive potential of tumor cells Cancer Res 47:3239-3245, 1987). Myoblasts were grown to approximately 70% confluence, rinsed three times in serum-free DMEM, followed by incubation for 3 hours in 0.2% bovine serum albumin (BSA) in DMEM to eliminate the effects of serum. Cells were then trypsinized and collected by centrifugation. Cells were resuspended in serum-free DMEM at a density of 1×10^5 cells/ml, and 0.5 ml aliquots of cell suspension were added to the top chamber. […] Fibronectin subfragments of 45 KDa (Sigma), 120 kDa (Gibco), 63 kDa (Retronectin, Takara) and 70 KDa (Sigma) were used alone or in combination. The growth factor concentrations used were those which could produce maximal effects as examined in the present studies by extending from values reported by Bischoff (“Chemotaxis of skeletal muscle satellite cells” Devel. Dynamics 208:505-515, 1997). For migration studies, the upper chamber membrane was coated with 0.1% gelatin and cells were allowed to migrate for 8-12 hours, while for invasion studies, the upper membrane was coated with 5 μl of Matrigel® diluted to 5 mg/ml in sterile phosphate buffered saline (PBS) and cells were allowed to invade for 24 hours. The top side of the insert membrane was scrubbed free of cells using a cotton swab and the bottom side was stained using the Leukostat-I system (Fisher Diagnostics, Pittsburgh, Pa.). The number of cells per field was counted in 10 randomly selected fields and averaged for each condition. To evaluate the effects of inactivation or activation of MMPs, aliquots (0.05 units in 50 μl PBS) of purified human plasmin (Sigma) or 50 mM N-acetyl cysteine (NAC; Sigma) were added with the cells to the top chamber of the migration assay and growth factor was added to the bottom. […] The effects of growth factors on human myoblast migration in vitro (12 hour time point) were somewhat different from those observed with mouse myoblasts. […] The greatly elevated level of migration of human myoblasts was due in part to the extremely low migration in the BSA control (basal level) of human cells compared to mouse cells. The largest effects on human myoblast migration were produced by fibronectin (100-fold), PDGF (about 62-fold), TGF-β (about 54-fold) and HGF (46-fold) over the control level, while bFGF produced only a 37-fold stimulation (FIG. 7a). […]
Molecule,increase of total MMP-2 expression (MMP-2) [%],stimulation of mouse myoblast migration over the DMEM control (mouse myoblasts) [fold],effect on mouse myoblast migration (mouse myoblasts),stimulation of human myoblast migration over the BSA control level (human myoblasts)
purified human transforrning growth factor-β1 [TGF-β1],36,5,stimulated migration of mouse myoblasts to various degrees,about 54 fold
recombinant hepatocyte growth factor [HGF],,8,stimulated migration of mouse myoblasts to various degrees,46 fold
recombinant human insulin-like growth factor-I [IGF-I],69,,stimulated migration of mouse myoblasts to various degrees,
B1,35,,stimulated migration of mouse myoblasts to various degrees,about 62 fold
